Measurements as given in patent US7417156B2, “Orally active, antimalarial, anticancer, artemisinin-derived trioxane dimers” (Johns Hopkins University, priority 2002, dated 2008).

Assays:
MCF7 = assay: NCI 60 cell line panel screen (SRB); format: cell-based, human
TK-10 = assay: NCI 60 cell line panel screen (SRB); format: cell-based, human; conditions: Renal Cancer, TK-10
UACC-257 = assay: NCI 60 cell line panel screen (SRB); format: cell-based, human
OVCAR-5 = assay: NCI 60 cell line panel screen (SRB); format: cell-based, human
M14 = assay: NCI 60 cell line panel screen (SRB); format: cell-based, human
U251 = assay: NCI 60 cell line panel screen (SRB); format: cell-based, human
HL-60(TB) = assay: NCI 60 cell line panel screen (SRB); format: cell-based, human
COLO 205 = assay: NCI 60 cell line panel screen (SRB); format: cell-based, human
RPMI-8226 = assay: NCI 60 cell line panel screen (SRB); format: cell-based, human
HCT-15 = assay: NCI 60 cell line panel screen (SRB); format: cell-based, human
MDA-MB231/ATCC = assay: NCI 60 cell line panel screen (SRB); format: cell-based, human
NCI-H522 = assay: NCI 60 cell line panel screen (SRB); format: cell-based, human
NCI/ADR-RES = assay: NCI 60 cell line panel screen (SRB); format: cell-based, human
BT-549 = assay: NCI 60 cell line panel screen (SRB); format: cell-based, human
CCRF-CEM = assay: NCI 60 cell line panel screen (SRB); format: cell-based, human
T-47D = assay: NCI 60 cell line panel screen (SRB); format: cell-based, human
786-0 = assay: NCI 60 cell line panel screen (SRB); format: cell-based, human
ACHN = assay: NCI 60 cell line panel screen (SRB); format: cell-based, human; conditions: ACHN (Renal Cancer)
HT29 = assay: NCI 60 cell line panel screen (SRB); format: cell-based, human
KM12 = assay: NCI 60 cell line panel screen (SRB); format: cell-based, human
IGROVI = assay: NCI 60 cell line panel screen (SRB); format: cell-based, human
NCI-H322M = format: cell-based

`CC(=O)O[C@H]1C(=O)[C@@]2(C)[C@H]([C@H](OC(=O)c3ccccc3)[C@]3(O)C[C@H](OC(=O)[C@H](O)[C@@H](NC(=O)c4ccccc4)c4ccccc4)C(C)=C1C3(C)C)[C@]1(OC(C)=O)CO[C@@H]1C[C@@H]2O` [Paclitaxel, paclitaxel, reference compound] was tested. Which Log10GI50 (MCF7; Breast Cancer, MCF7) did it give?
Its Log10GI50 is −11.69.

What about the Log10LC50 (MCF7; MCF7 (Breast Cancer), LC50: PG=−50) of the same compound?
The Log10LC50 was greater than −4.00 log10M.

And the Log10GI50 (TK-10)?
The Log10GI50 was −7.89.

What about the Log10GI50 (UACC-257; Melanoma, UACC-257) of the same compound?
The Log10GI50 was −10.30.

What about the Log10LC50 (UACC-257; UACC-257 (Melanoma), LC50: PG=−50) of the same compound?
Its Log10LC50 is −4.03 log10M.

And the Log10TGI50 (UACC-257; UACC-257 (Melanoma), TGI: PG=0)?
The Log10TGI50 was −4.52 log10M.

And the Log10LC50 (OVCAR-5; OVCAR-5 (Ovarian Cancer), LC50: PG=−50)?
Its Log10LC50 is greater than −4.00 log10M.

What about the Log10TGI50 (OVCAR-5; OVCAR-5 (Ovarian Cancer), TGI: PG=0) of the same compound?
Its Log10TGI50 is −4.92 log10M.

What about the Log10GI50 (OVCAR-5; Ovarian Cancer, OVCAR-5) of the same compound?
Its Log10GI50 is −9.38.

And the Log10LC50 (M14; M14 (Melanoma), LC50: PG=−50)?
The Log10LC50 was −4.13 log10M.

What about the Log10TGI50 (M14; M-14 (Melanoma), TGI: PG=0) of the same compound?
Its Log10TGI50 is −4.62 log10M.

And the Log10GI50 (M14; Melanoma, M14)?
Its Log10GI50 is −11.73.

What about the Log10GI50 (U251; CNS Cancer, U251) of the same compound?
Its Log10GI50 is −11.29.

What about the Log10LC50 (U251; U251 (CNS Cancer), LC50: PG=−50) of the same compound?
The Log10LC50 was −4.15 log10M.

And the Log10TGI50 (U251; U251 (CNS Cancer), TGI: PG=0)?
The Log10TGI50 was −4.32 log10M.

And the Log10LC50 (HL-60(TB); HL-60(TB) (Leukemia), LC50: PG=−50)?
The Log10LC50 was greater than −4.53 log10M.

What about the Log10TGI50 (HL-60(TB); HL-60(TB) (Leukemia), TGI: PG=0) of the same compound?
The Log10TGI50 was −4.53 log10M.

What about the Log10GI50 (HL-60(TB); Leukemia, HL-60(TB)) of the same compound?
Its Log10GI50 is −11.57.

And the Log10LC50 (COLO 205; COLO 205 (Colon Cancer), LC50: PG=−50)?
Its Log10LC50 is greater than −4.41 log10M.

What about the Log10GI50 (COLO 205; Colon Cancer, COLO 205) of the same compound?
The Log10GI50 was −11.07.

What about the Log10GI50 (RPMI-8226; Leukemia, RPMI-8226) of the same compound?
Its Log10GI50 is less than −13.00.

What about the Log10LC50 (RPMI-8226; RPMI-8226 (Leukemia), LC50: PG=−50) of the same compound?
Its Log10LC50 is greater than −4.00 log10M.

What about the Log10TGI50 (RPMI-8226; RPMI-8226 (Leukemia), TGI: PG=0) of the same compound?
Its Log10TGI50 is greater than −4.00 log10M.

And the Log10GI50 (HCT-15; Colon Cancer, HCT-15)?
Its Log10GI50 is −6.37.

And the Log10LC50 (HCT-15; HCT-15 (Colon Cancer), LC50: PG=−50)?
Its Log10LC50 is greater than −4.00 log10M.

What about the Log10TGI50 (HCT-15; HCT-15 (Colon Cancer), TGI: PG=0) of the same compound?
Its Log10TGI50 is greater than −4.00 log10M.

What about the Log10GI50 (MDA-MB231/ATCC; Breast Cancer, MDA-MB231/ATCC) of the same compound?
Its Log10GI50 is −8.54.

And the Log10TGI50 (MDA-MB231/ATCC; MDA-MB231/ATCC (Breast Cancer), TGI: PG=0)?
Its Log10TGI50 is −4.84 log10M.

What about the Log10TGI50 (NCI-H522; NCI-H522 (Non-Small Cell Lung Cancer), TGI: PG=0) of the same compound?
Its Log10TGI50 is −11.20 log10M.

And the Log10LC50 (NCI-H522; NCI-H-522 (Non-Small Cell Lung Cancer), LC50: PG=−50)?
Its Log10LC50 is greater than −4.00 log10M.

What about the Log10GI50 (NCI-H522; Non-Small Cell Lung Cancer, NCI-H522) of the same compound?
Its Log10GI50 is less than −13.00.

What about the Log10GI50 (NCI/ADR-RES; Breast Cancer, NCI/ADR-RES) of the same compound?
Its Log10GI50 is −8.48.

What about the Log10LC50 (NCI/ADR-RES; NCI/ADR-RES (Breast Cancer), LC50: PG=−50) of the same compound?
The Log10LC50 was greater than −4.00 log10M.

What about the Log10TGI50 (NCI/ADR-RES; NCI/ADR-RES (Breast Cancer), TGI: PG=0) of the same compound?
The Log10TGI50 was greater than −4.00 log10M.

What about the Log10LC50 (BT-549; BT-549 (Breast Cancer), LC50: PG=−50) of the same compound?
The Log10LC50 was greater than −4.00 log10M.

And the Log10TGI50 (BT-549; BT-549 (Breast Cancer), TGI: PG=0)?
Its Log10TGI50 is −6.32 log10M.

And the Log10GI50 (BT-549; Breast Cancer, BT-549)?
Its Log10GI50 is −9.31.

What about the Log10LC50 (CCRF-CEM; CCRF-CEM (Leukemia), LC50: PG=−50) of the same compound?
Its Log10LC50 is greater than −4.00 log10M.

And the Log10TGI50 (CCRF-CEM; CCRF-CEM (Leukemia), TGI: PG=0)?
Its Log10TGI50 is greater than −4.00 log10M.

And the Log10GI50 (CCRF-CEM; Leukemia, CCRF-CEM)?
The Log10GI50 was −11.61.

What about the Log10GI50 (T-47D; Breast Cancer, T-47D) of the same compound?
The Log10GI50 was −9.81.

What about the Log10LC50 (T-47D; T-47D (Breast Cancer), LC50: PG=−50) of the same compound?
The Log10LC50 was greater than −4.00 log10M.

And the Log10LC50 (786-0; 786-0 (Renal Cancer), LC50: PG=−50)?
The Log10LC50 was greater than −4.00 log10M.

And the Log10TGI50 (786-0; 786-0 (Renal Cancer), TGI: PG=0)?
Its Log10TGI50 is greater than −4.00 log10M.

And the Log10GI50 (786-0; Renal Cancer, 786-0)?
The Log10GI50 was −8.01.

And the Log10LC50 (ACHN; LC50: PG=−50)?
The Log10LC50 was −4.45 log10M.

What about the Log10TGI50 (ACHN; TGI: PG=0) of the same compound?
The Log10TGI50 was −4.90 log10M.

And the Log10GI50 (HT29; Colon Cancer, HT29)?
The Log10GI50 was less than −13.00.

What about the Log10LC50 (HT29; HT29 (Colon Cancer), LC50: PG=−50) of the same compound?
Its Log10LC50 is −4.39 log10M.

And the Log10GI50 (KM12; Colon Cancer, KM12)?
Its Log10GI50 is −11.43.

What about the Log10LC50 (KM12; KM12 (Colon Cancer), LC50: PG=−50) of the same compound?
Its Log10LC50 is greater than −4.00 log10M.

And the Log10TGI50 (KM12; KM12 (Colon Cancer), TGI: PG=0)?
The Log10TGI50 was −4.36 log10M.

And the Log10LC50 (IGROVI; IGROVI (Ovarian Cancer), LC50: PG=−50)?
Its Log10LC50 is greater than −4.00 log10M.

What about the Log10TGI50 (IGROVI; IGROVI (Ovarian Cancer), TGI: PG=0) of the same compound?
Its Log10TGI50 is −4.19 log10M.

What about the Log10GI50 (IGROVI; Ovarian Cancer, IGROVI) of the same compound?
The Log10GI50 was −8.61.

And the Log10LC50 (NCI-H322M; NCI-H322M (Non-Small Cell Lung Cancer), LC50: PG=−50)?
The Log10LC50 was greater than −4.00 log10M.

And the Log10TGI50 (NCI-H322M; NCI-H322M (Non-Small Cell Lung Cancer), TGI: PG=0)?
Its Log10TGI50 is −4.46 log10M.

And the Log10GI50 (NCI-H322M; Non-Small Cell Lung Cancer, NCI-H322M)?
Its Log10GI50 is −10.12.
